Laboratory results reported in publication PMC10447463, “Data-mining unveils structure–property–activity correlation of viral infectivity enhancing self-assembling peptides” (Nature Communications, 2023).
Where two headings read alike, the source gives them in different places.

Tests used:
[1] = type: physicochemical; parameters: key to Fibril / Fibril Formation / TEM 2cat / Fibril: 1 = fibrils present; 0 non-fibrillar structures
Method: For ATR FT–IR spectroscopy measurements, 200 µL of the respective 1 mg/mL PNF solution was lyophilized and the resulting powder used for measurement. All spectra were recorded on a Bruker Tensor 27 spectrometer with a diamond crystal as ATR element (PIKE MiracleTM, spectral resolution 2 cm^-1). Every sample was measured with 64 scans. Data were analyzed with OriginLab software and calculation of β–sheet content was conducted according to a previous report. TEM. For TEM measurements 5 µL of PNF fibrils (1 mg/mL) were placed on copper grids coated with carbon and formvar layer (300 mesh, Plano GmbH). After 10 min incubation time, the grids were staining with 4% uranyl acetate solution for 2.5 min and washed with water. Measurements were performed on a Jeol 1400 electron microscope with 120 kV acceleration voltage. CR Assay. For the determination of the amount of peptide monomer converting into nanostructures the amine reactive dye fluorescamine was used analogous to a previous reported protocol. Briefly, 100 µL of the preformed PNF solution was centrifuged in a Vivaspin 500 tube (3 kDa MWCO) to separate fibers from free peptide monomer (16200 x g, 4 °C, 45 min). The filtrate and 100 μL of the non-filtered PNF sample were lyophilized and dissolved in 30 μL DMSO. 10 μL of the filtrate and non-filtered DMSO samples were submitted in a black UV Star® 384 microliter well–plates (Greiner bio–one) and 3 μL of the fluorescamine solution (10 mg/mL, DMSO) was added to measure the fluorescence enhancement. After 20 min of incubation at RT, fluorescence was recorded on an Infinite® M1000 PRO microplate reader (Tecan) at λem = 470 nm upon excitation at λex = 365 nm with 10 nm bandwidths and multiple reads per well (3×3). Measurements were repeated in triplicates and averaged with standard deviation. All values were calculated as n-fold fluorescence enhancement (DMSO only as a reference was set to 1). The conversion rate CR was defined according to the equation Eq. (3).3 CR=100−100×fluorescenceintensityfiltrate/fluorescenceintensityoriginal[%]
(§1) 1. Remarks on experimental parameters and bioinformatic descriptors
1.1 Experimental parameters
Transmission electron microscopy (TEM) measurements. TEM measurements were used to control if peptides assemble. The assemblies were categorized in non -fibrillar structures (no assembly, […]
grid but only amorphous aggregates. In contrast, peptides defined as fibrillar may also include amorphous structures. Amongst nonfibrillar assemblies also amorphous aggregates are summarized.
Amorphous aggregates are defined as structures with high β-sheet content which lack long-range order, that is crystallinity or fibril formation. It is generally assumed that these structures might be

[2] = Zeta-potential measurement; type: physicochemical; parameters: Zeta-Potential: unit not given here
Method: (§2) 4 µL of 1 mg/mL peptide fibrils solution is added to a 20 µL, 50 µM ThT–solution in PBS. The mixture is incubated for 15 min at RT to allow binding of ThT dye with β–sheet rich structures. For reference PBS (4 µL) was added instead of peptide fibril solution. The samples were placed in black UV Star® 384 microliter well–plates (Greiner bio–one). Fluorescence spectra were recorded on an Infinite® M1000 PRO microplate reader (Tecan) at λem = 488 nm upon excitation at λex = 440 nm with 10 nm bandwidths and multiple reads per well (3×3). Measurements were repeated in triplicates and averaged with standard deviation. […] Zeta-Potential. For the determination of the surface charge of aggregated peptides zeta-potential measurements were conducted with a Zetasizer Nano ZS, Malvern Instruments. Unless stated otherwise the peptides were dissolved from DMSO (10 mg/mL) in PBS (pH 7.4) to concentration of 1 mg/mL and incubated for 1d at RT. Just before the measurement the 60 µL of the peptides were further diluted in 600 µL KCl (aq, 1 mM) in a 1 mL disposable folded capillary cells (DTS–1060, Zetasizer Nano series, Malvern). The zeta potential of the peptides was derived from the electrophoretic mobility based on the Smoluchowski formula. All measurements were averaged over two individually performed experiments and conducted in triplicates for each sample. Aggregate analysis. […] Furthermore, fluorescence microscopy was conducted by staining 1 µL preformed fibrils (1 mg/mL) with 9 µL ThT (50 µM). Brightfield microscopy was performed simultaneously to evaluate aggregation also for non ThT-active fibrils. The measurements were performed on a Leica DMi8 microscope with 10x air objective and equipped with a Leica MC170 HD camera with a filter setting λem = 527/30 nm upon excitation at λex = 480/40 nm) and processed with the Leica LASX software. To quantify size and number of microscopic aggregation of particles > 10 µm^2 at least 3 independently measured images were analyzed via the 3D object counter analysis tool of ImageJ, v 1.53f51. Sum–frequency generation. The SFG experiments were carried out with a femtosecond Ti: Sapphire amplified laser system (Spitfire Ace, Spectra–Physics, 800 nm, 40 fs, 1 kHz) with 5 W output power. We used 2 W to pump an optical parametric amplifier (TOPAS, light conversion) with a non–collinear difference frequency generation stage to generate broadband IR pulses. Another 1 W of the laser output passed through an etalon to generate narrowband visible pulses (10 cm^-1). The incident angles of the visible and IR beams were 36° and 41° with respect to the surface normal, respectively. The visible (13 µJ) and IR (5 µJ) pulses were overlapped spatially and temporally at the sample position. Subsequently, the generated SFG pulse was guided into a spectrograph (Acton SP 300i, Princeton Instruments), and detected with an EMCCD (Newton, Andor Technology). To avoid IR absorption of water vapor, we purged N2 for the measurement. All spectra were collected in the ssp (denoting s-, s- and p-polarized SFG, visible and IR, respectively) polarization combination. The spectra were normalized to the non–resonant signal taken from z–cut quartz after subtracting a background spectrum. […]

[3] = system: HIV-1 infection of TZM-bl cells; test: HIV-1 infectivity enhancement assay, β-galactosidase luminescence; type: cell-based; conditions: for Log10 Infection Rel EF-C: log10 of infection relative to EF-C; for Inf. rel. EF-C: n-fold infection vs virus only, relative to that of EF-C, 1.3 µM peptide
[4] = type: physicochemical
Method: 4 µL of 1 mg/mL peptide fibrils solution is added to a 20 µL, 50 µM ThT–solution in PBS. The mixture is incubated for 15 min at RT to allow binding of ThT dye with β–sheet rich structures. For reference PBS (4 µL) was added instead of peptide fibril solution. The samples were placed in black UV Star® 384 microliter well–plates (Greiner bio–one). Fluorescence spectra were recorded on an Infinite® M1000 PRO microplate reader (Tecan) at λem = 488 nm upon excitation at λex = 440 nm with 10 nm bandwidths and multiple reads per well (3×3). Measurements were repeated in triplicates and averaged with standard deviation. […] Zeta-Potential. For the determination of the surface charge of aggregated peptides zeta-potential measurements were conducted with a Zetasizer Nano ZS, Malvern Instruments. Unless stated otherwise the peptides were dissolved from DMSO (10 mg/mL) in PBS (pH 7.4) to concentration of 1 mg/mL and incubated for 1d at RT. Just before the measurement the 60 µL of the peptides were further diluted in 600 µL KCl (aq, 1 mM) in a 1 mL disposable folded capillary cells (DTS–1060, Zetasizer Nano series, Malvern). The zeta potential of the peptides was derived from the electrophoretic mobility based on the Smoluchowski formula. All measurements were averaged over two individually performed experiments and conducted in triplicates for each sample. Aggregate analysis. […] Furthermore, fluorescence microscopy was conducted by staining 1 µL preformed fibrils (1 mg/mL) with 9 µL ThT (50 µM). Brightfield microscopy was performed simultaneously to evaluate aggregation also for non ThT-active fibrils. The measurements were performed on a Leica DMi8 microscope with 10x air objective and equipped with a Leica MC170 HD camera with a filter setting λem = 527/30 nm upon excitation at λex = 480/40 nm) and processed with the Leica LASX software. To quantify size and number of microscopic aggregation of particles > 10 µm^2 at least 3 independently measured images were analyzed via the 3D object counter analysis tool of ImageJ, v 1.53f51. Sum–frequency generation. The SFG experiments were carried out with a femtosecond Ti: Sapphire amplified laser system (Spitfire Ace, Spectra–Physics, 800 nm, 40 fs, 1 kHz) with 5 W output power. We used 2 W to pump an optical parametric amplifier (TOPAS, light conversion) with a non–collinear difference frequency generation stage to generate broadband IR pulses. Another 1 W of the laser output passed through an etalon to generate narrowband visible pulses (10 cm^-1). The incident angles of the visible and IR beams were 36° and 41° with respect to the surface normal, respectively. The visible (13 µJ) and IR (5 µJ) pulses were overlapped spatially and temporally at the sample position. Subsequently, the generated SFG pulse was guided into a spectrograph (Acton SP 300i, Princeton Instruments), and detected with an EMCCD (Newton, Andor Technology). To avoid IR absorption of water vapor, we purged N2 for the measurement. All spectra were collected in the ssp (denoting s-, s- and p-polarized SFG, visible and IR, respectively) polarization combination. The spectra were normalized to the non–resonant signal taken from z–cut quartz after subtracting a background spectrum.
as §1

[5] = Turbidity, derived count rate of scattered light; type: physicochemical; conditions: for Count Rate / kcps: derived count rate of scattered light at 633 nm, 173°, from zeta-potential measurement, 0.1 mg/mL in 1 mM KCl after 1 d at 1 mg/mL in PBS, turbidity / microscopic aggregation, mean of triplicate
Method: as §2
ways to determine turbidity of samples, this can be via transmittance and via scattering. Transmittance […]
as it is an easy and fast method.10,11 However, transmittance contributes not only from µm-sized aggregates but also nm-sized aggregates such as distinct fibrils, which makes hard to distinguish between fibril formation and micrometer sized aggregation. Although dynamic light scattering is a frequently applied method for determination of particle size, it cannot be conducted in solutions with anisotropic aggregates in micrometer size range, since the Stokes-Einstein relation is only applicable for homogeneous […] spherical particles.12 Further models describing scattering intensity and […]

[6] = Turbidity, derived count rate of scattered light; type: physicochemical; conditions: log10 of derived count rate of scattered light, Figure 7B

EFEFQFNMWQ [JH1]
TEM: 1= fibrils, 0= aggregates (micelle), 0.5 = aggregates and fibrils, -1 = nothing obersved, STD prep [1]: 1 | TEM: 1= fibrils, 0= aggregates (micelle), 0.5 = aggregates and fibrils, -1 = nothing obersved, STD prep ([1]; TEM): 1 | Zeta category ( +1 = if > 4 mV;-1 = if < -4 mV; 0 = -4mV to 4 mV) [2]: 0 (0 = -4mV to 4 mV) | Zeta category ( +1 = if > 4 mV;-1 = if < -4 mV; 0 = -4mV to 4 mV) ([2]; category derived from the zeta potential): 0 (0 = -4mV to 4 mV)

ILKNLSRSRKIKIQINMWQ [TM92]
Log10 of Rel to EFC (Feb2021) ([3]; Feb2021, Log10 of infectivity relative to EF-C): -0.4939 | Rel-to EFC (Feb-2021) ([3]; Feb2021, n-fold enhancement relative to EF-C): 0.3207 | infectivity ([3]; infectivity class (low / medium / high) of each library peptide, main list in c1-c6, same classes repeated in sub-lists of sequences containing the hydrophobicity/charge patterns P+,H0,P+,H0,P0,H0,P0, P+,H0,P0,H0,P0,H0,P0, P+,H0,P0,H0): medium | Log10 Inf. rel. to EF-C ([3]; log10 of HIV-1 infection of TZM-bl cells relative to EF-C, Fig S15 source data, asymmetric std dev errors): -0.4939 | Zeta category ( +1 = if > 4 mV;-1 = if < -4 mV; 0 = -4mV to 4 mV) ([2]; category from zeta potential): 1 (+1 = if > 4 mV) | Zeta Pot. / mV ([2]; mean, Std Zeta in next column): 19.2 mV | Zeta-pot. / mV ([2]; zeta potential of peptide, Fig S15 source data): 19.2 mV | Tht rel to blank (42.1851851851852) ([4]; ThT fluorescence relative to blank (42.1851851851852 a.u.)): 3.339 | Zeta Count Rate Category ([5]; category 1 or 0 from count rate, key not given): 1 | Zeta Count Rate / kcps ([5]; derived count rate of scattered light, mean, std deviation in next column): 306.5 kcps

KCQCQCQ
Log10 Infection Rel EF-C ([3]; Figure 6C): 0.05949 | Inf. rel. EF-C [3]: 1.15 | Fibril / Fibril Formation ([1]; TEM, 1 mg/mL, uranyl acetate stain, qualitative): 1 | Zeta-Potential / mV ([2]; mean, Figure 6C): 11.83 mV | Count Rate / kcps [5]: 15236 kcps | Log10 Count Rate ([5]; log10 of derived count rate of scattered light, Figure 6C): 4.183 | Log10 Count Rate ([5]; logarithm of count rate in kcps): 4.183

LANWMCLAKW [reference compound]
Log10 Infection Rel EF-C ([3]; Figure 7B): -0.4 | Inf. rel. EF-C [3]: 0.40 | Abs Infection at 0.26µM ([3]; peptide 0.26 µM, mean of n = 3, Figure 7A): 44873.33333 | Abs Infection at 1.3 µM ([3]; peptide 1.3 µM, mean of n = 3, Figure 7A): 80126.66667 | Abs Infection at 6.5 µM ([3]; peptide 6.5 µM, mean of n = 3, Figure 7A): 133423.3333 | Log10 Count Rate [6]: 4.178 | Zeta Potential ([2]; mean of n = 3): 14.73 | Zeta-Potential / mV ([2]; mean, Figure 7B): 14.73 mV | Zeta-Potential ([2]; replicate 1): 14.5 | Zeta-Potential ([2]; replicate 2): 14.6 | Zeta-Potential ([2]; replicate 3): 15.1 | ThT Cat. / ThT-Fluorescence (categorical) ([4]; ThT-active if fluorescence at least twice the control): 1 (ThT. Cat is 1, if Rel. ThT >2) | Count Rate / kcps [5]: 15062 kcps | Count Rate ([5]; derived count rate of scattered light, mean of n = 3): 15061.73333 kcps | Count Rate ([5]; derived count rate of scattered light, replicate 1): 20482.8 kcps | Count Rate ([5]; derived count rate of scattered light, replicate 2): 10116.2 kcps | Count Rate ([5]; derived count rate of scattered light, replicate 3): 14586.2 kcps
